The source of these data is US6120997A, “Nucleic acid binders having an hydroxyamine motif” (The Scripps Research Institute, priority 1998, dated 2000).

Entries after “also recorded” stand apart in the source; their conditions may differ. *1 amine or outer side, *2 acyl side, *3 side chain or, on linkers, in order; H or OH if unused. Where a SMILES comes first, the peptide text is derived from it. Bridges are numbered along the chain shown (N, C = ends). [ ]: non-standard residue; d: D form. The star is where a group is joined. X2 = NC1=N[C@@H]([C@H](N[*:1])C(=O)[*:2])C[C@H](O)N1; ΔAla(Z-3-ureido) = NC(=O)N/C=C(\N)C(=O)O; X1 = NCC[C@@H](O)[C@H](N)CC(=O)*; Dap = NC[C@H](N)C(=O)O

In one test the target is Neo16-bd. Description: SPR binding of aminoglycosides to Neo16-bd aptamer. The settings on record: HBS-buffer; read-out: Kd, Neo16bd. The procedure:
Conditions: 10 mM HEPES (pH 7.4), 0.1 mM EDTA and NaCl as indicated.
The binding of aminoglycosides to RNA is likely to involve substantial ionic contributions and therefore should be strongly influenced by competing buffer ions. […] We studied the salt dependence of neomycin B binding to RBE3, RBE3-neg and Neo16-bd (FIG. 14) by varying the concentration of NaCl included in the injection buffer (10 mM HEPES, pH 7.4, 0.1 mM EDTA). […] This neomycin binding motif was obtained by in vitro selection under conditions of high ionic strength.
To further improve our understanding of specific aminoglycoside recognition, we have also included an artificial aminoglycoside receptor that was evolved in vitro to recognize an aminoglycoside. A number of RNA aptamers for small molecules have been reported in recent years. Among them are aptamers that recognize the aminoglycosides tobramycin, lividomycin and kanamycin.
For comparison, the corresponding values for AS-wt are also included.
(§1) General Procedures for SPR Binding Studies done in Example 5. Samples were prepared by serial dilutions from stock solutions in RNase free microfuge tubes (Ambion) and were centrifuged at 14000 rpm for degassing. Unless otherwise noted, all binding studies were carried out using HBS buffer (Pharmacia Biosensor AB) which was used as obtained. All procedures for binding studies were automated as methods using repetitive cycles of sample injection and regeneration. Typically, buffer was injected in the first two cycles to establish a stable baseline value. Samples were injected at a flowrate of […] using either the KINJECT command. All aminoglycoside samples were injected from autoclaved 7 mm plastic vials that were capped with pierceable plastic crimp caps. To minimize carry over, samples were injected in order of increasing concentration. The running buffer was identical to the injection buffer.
(SPR reads the build-up and loss of mass on a sensor chip optically.)

For a further test, the system named is AS-wt. Description: SPR binding of aminoglycosides to decoding region A-site model AS-wt. The settings on record: for RNA binding, affinity or specificity for AS-wt (in words): Example 4. More on the design: species or system E. coli. The protocol:
The RNA binding properties of 100-800 were analyzed using a surface plasmon resonance based assay that was recently developed in these laboratories. This assay allows the determination of both affinity and specificity of small molecule-RNA interactions. For the analysis, the compounds were injected over a matrix containing RNA that was immobilized through a biotin tag and the equilibrium binding values were recorded at various concentrations.
Non-linear curve fitting was then used to determine the values of the dissociation constants (KD). The specificity of binding, i.e. the ability to discriminate between different RNA sequences was evaluated by comparing the binding to the target sequence (AS-wt) and the negative control (AS-U1495A). The ratio of KD(AS-U1495A) to KD(AS-wt) was taken to be a representation of the specificity of the binding event.
For the quantitative measurement of aminoglycoside binding to these sequences, we utilized our recently developed SPR-based assay. Biotinylated derivatives of all sequences were prepared by in vitro transcription in the presence of guanosine 5'-monophosphorothioate followed by alkylation with a biotin iodoacetamide derivative. The RNA conjugates were then immobilized onto streptavidin coated SPR-sensorchips for analysis.
In the same manner as illustrated for paromomycin, a panel of aminoglycosides was screened and the results are compiled in the table of FIGS. 46 and 47. In addition to the naturally occuring aminoglycoside antibiotics, some of the compounds in FIG. 46 are synthetically derived, unnatural aminoglycosides. The number of independent determinations for each dissociation constant ranged from 1-3. […] All data were recorded under near physiological salt conditions (HBS-buffer: 150 mM NaCl, 10 mM HEPES, pH7.4, 3.4 mM EDTA) unless noted otherwise. Data points were taken at concentrations ranging from […]. Below this concentration range, surface transport limitations prevent the attainment of equilibrium.
Plasmon resonance and antimicrobial testing for Example 4. Synthesis of the biotinylated RNA and surface plasmon resonance detected binding experiments were performed as described vida supra. Solution conditions: 150 mM NaCl, 10 mM HEPES (pH 7.4), 3.4 mM EDTA. KD determination from the binding curves.
The fitting routine of the program kaleidagraph was used for all calculations. The starting values for a and b were set to 1 and 0 respectively. The number of KD values used in the fitting was adjusted depending on the observed range of equivalents bound but generally varied from 3 to 4.
as §1, with “buffer. Expected values for the equilibrium response of one equivalent of analyte were calculated from the relative molecular weight of the analyte and the immobilized RNA ligand in each flowcells and adjusted with a correction factor of 0.76 which arises from the different molar refractive indices of RNA and the analyte. […]” for “buffer.”

The subject of test [1] is Escherichia coli (ATCC 25922). Description: minimum inhibitory concentration, broth dilution technique. Type of test: cell-based. Particulars: E. coli, liquid culture. The source says: We reasoned that this modification would provide the cleanest test for probing the ionic contribution, since hydrogen bond donor abilities, electronegativity and steric demand are similar for both functional groups. In order to learn how well the model system correlates with in vivo activity, we checked the new compounds for antibacterial activity against three bacterial strains using the disc method (Kirby-Bauer technique). The minimum inhibitory concentrations (MICs) of the compounds were then determined using the broth dilution technique. For antibiotic testing protocols, see: (a) Disk testing protocols: Phillips, I.; Williams, D., in Laboratory Methods in Antimicrobial Chemotherapy, Garrod, L. (ed.) Churchill Livingstone Press: Edinburgh, 1978, pp. 3-30. (b) MIC determination: Waterworth, P. M., in Laboratory Methods in Antimicrobial Chemotherapy, Garrod, L. (ed.) Churchill Livingstone Press: Edinburgh, 1978, pp. 31-40; Barry, A. L. The Antimicrobic Susceptibility Test: Principles and Practice, Lea and Febiger: Philadelphia (1976). (c) Standards: Lorian, V., Antibiotics in Laboratory Medicine (2nd. ed.), Williams and Wilkins: Baltimore, 1986.
FIG. 39A gives the zone diameters measured for the three bacterial strains. The zone diameters measured for the strains with known antibiotics are well within the accepted limits. […] It is worth noting that some testing protocols recommend overnight growth of the cultures, rather than the minimum time required to obtain good growth of the control. MIC values were tested for several of the control antibiotics using overnight growth, and the MIC values observed were 2-4× greater than those observed for 4-6 hour growth.
Minimal Inhibitory Concentration (MIC) testing. E. coli ATCC 25922 was grown in Mueller-Hinton broth (cation-adjusted, BBL Microbiology Systems) to an optical density of approx. 0.5 (absorbance read at 600 nm), then diluted to an OD600 of 0.1. Samples of antibiotic were prepared in Mueller-Hinton broth, typically a series of 2-fold dilutions from […]. […] The absorbance of each sample was read (1=600 nm), and MIC was considered to be the lowest antibiotic concentration at which the absorbance was less than 1% of the no-antibiotic control.

Test [2] deals with bacterial protein synthesis. The settings on record: cited from earlier work.
A further test has as its system wt-RRE-II. Description: SPR binding of aminoglycosides to wt-RRE-II. Further details: species or system HIV-1. The settings on record: comparison of aminoglycosides. The protocol: FIGS. 9A and 9B illustrate neomycin B binding to RBE3, RBE3-neg and wt-RRE-II. (A) Semilogarithmic plot. […] Conditions: pH 7.0, 10 mM HEPES, 150 mM NaCl, 0.1 mM EDTA, […].
FIGS. 10A and 10B illustrate paromomycin binding to RBE3, RBE3-neg and wt-RRE-II. (A) Semilogarithmic plot; the dashed line indicates the binding of neomycin B to wt-RRE-II for comparison (B) Scatchard plot. […] Conditions: pH 7.0, 10 mM HEPES, 150 mM NaCl, 0.1 mM EDTA, […].
FIG. 11 illustrates the kinetic stability of wt-RRE-II complexes with neomycin B vs. paromomycin. […] Data points were taken after 1 min of dissociation.
Binding of the aminoglycoside to all three RNA oligonucleotides is observed starting in the low nanomolar concentration range and is non-saturable over the concentration range investigated. […] The high degree of non-specific binding is not surprising considering that aminoglycosides are highly charged polycations that tend to associate nonspecifically with the polyanionic phosphate backbone of RNA. […] Data points corresponding to 0.5 or more equivalents of neomycin B represent equilibrium values and can be analyzed with respect to stoichiometry and affinity of aminoglycoside binding. […] Both sequences bind one molecule of neomycin B with submicromolar affinity followed by weaker association with several additional equivalents of the antibiotic.
Samples were prepared by serial dilutions from stock solutions in RNase free microfuge tubes (Ambion) and were centrifuged at 14000 rpm for degassing. Buffers were filtered through sterile 0.2 &m nylon membranes (Nalgene) under vacuum, except for BIA certified HBS buffer (Pharmacia Biosensor AB) which was used as obtained. All procedures for binding studies were automated as methods using repetitive cycles of sample injection and regeneration. Typically, buffer was injected in the first two cycles to establish a stable baseline value. Samples were injected at a flowrate of 5-10 &L/min using either the KINJECT or the COINJECT command. All aminoglycoside and Rev27 samples were injected from autoclaved 7 mm plastic vials that were capped with pierceable plastic crimp caps. To minimize carry over, samples were injected in order of increasing concentration. The running buffer was identical to the injection buffer, except for the salt dependence study where a single running buffer was used for all injections. Expected values for the equilibrium response of one equivalent of analyte were calculated from the relative molecular weight of the analyte and the immobilized RNA ligand in each flowcells. These values were adjusted by multiplying with a factor of 0.8 or 0.57 for Rev27 or aminoglycosides respectively. These factors arise from the different molar refractive indices of RNA and the analyte and were determined from the Scatchard plot x-axis intercepts of the 1:1 binding isotherms for Rev27 and neomycin B.
Binding Studies with Aminoglycosides.
Neomycin B sulfate (Fluka) was converted to the free base by passing it through Amberlite IRA 400 (OH-- form) and purified by ion exchange chromatography on Dowex 1-X2 100 to remove neomycin C; the purity of neomycin B was verified by NMR in D2 O. Paromomycin sulfate was obtained from Sigma and used as received. Samples were prepared by dilution from 10 mM stock solutions in injection buffer (10 mM HEPES, pH 7.4, 150 mM NaCl, 3.4 mM EDTA). Data points were taken after an association phase of 30 min. A 2 min regeneration pulse of 150 mM Na2 SO4 in injection buffer was used between injections. […]

One may read the Kd as a measure of binding affinity in units of concentration. On to `NCCO[C@H]1[C@@H](O)[C@H](O[C@@H]2[C@@H](O)[C@H](N)C[C@H](N)[C@H]2O[C@H]2O[C@H](CN)[C@@H](O)[C@H](O)[C@H]2N)O[C@@H]1CO` [Compound 500, 3"-O-Ethyl-2-amino ribostamycin], for which the equilibrium dissociation constant (Kd) at Neo16-bd was < 10 nM. Further, the “RNA binding, affinity or specificity for AS-wt (in words)” value with AS-wt is given as “binding affinity goes up by an order of magnitude but specificity is unaffected; also recorded: significantly lower binding affinities toward the AS wt RNA than neomycin”. Besides, the “antibacterial activity / MIC compared with neomycin B (in words)” value in test [1] was “very nearly the same anti microbial activity as neomycin B”.
The like results for `NCCCNCCO[C@H]1[C@@H](O)[C@H](O[C@@H]2[C@@H](O)[C@H](N)C[C@H](N)[C@H]2O[C@H]2O[C@H](CN)[C@@H](O)[C@H](O)[C@H]2N)O[C@@H]1CO` [Compound 600, 3"-O-2-N-(3-propylamino)-ethylamino ribostamycin] were, in that order, < 10 nM, “diminishing returns on the affinity without affecting the specificity; also recorded: significantly lower binding affinities toward the AS wt RNA than neomycin” and “very nearly the same anti microbial activity as neomycin B”.
`CN(CC(=O)O)NC(=O)C[C@H](N)C[C@@H](O)CN` [Negamycin]: the “effect on bacterial protein synthesis (in words)” value in test [2] is on record as “induces miscoding during translation”.
As to `[H]/N=C(/N)N[C@H]1[C@H](O)[C@@H](O)[C@H](O[C@@H]2O[C@@H](C)[C@](O)(C=O)[C@H]2O[C@@H]2O[C@@H](CO)[C@H](O)[C@@H](O)[C@@H]2NC)[C@@H](N/C(N)=N\[H])[C@@H]1O` [Streptomycin], the “relative binding affinity for wt-RRE-II (in words)” value in the test with wt-RRE-II was “weakest”. For the same compound, in the test on AS-wt, the “RNA binding, affinity or specificity for AS-wt (in words)” value was “much reduced binding affinity and no specificity”. Also, in the test with AS-wt (Example 5, HBS-buffer), the “specificity for AS-wt over negative controls (in words)” value is “does not show any specificity for AS-wt”.
With `NCC[C@@H](O)[C@H](N)CC(=O)N[C@H]1CNC(=O)[C@H]([C@H]2C[C@H](O)NC(N)=N2)NC(=O)/C(=C/NC(N)=O)NC(=O)[C@H](CO)NC(=O)[C@H](CO)NC1=O` [Tuberactinomycin A] (X1-[Dap]SS[ΔAla(Z-3-ureido)][X2]; lactam 1-C), the “effect on bacterial protein synthesis (in words)” value in test [2] is “inhibits both initiation and elongation steps of bacterial protein synthesis”.
